Data published in US20260242359A1, “IRHOM2 INHIBITORS AND USES THEREOF” (NEW YORK SOCIETY FOR THE RELIEF OF THE RUPTURED AND …, priority 2023, published 2026).

Tested on: LPS-induced release of endogenous TNFα from human peripheral blood mononuclear cells (PBMCs)
Assay: Example 13: ELISA-based TNFα release assay, LPS-induced, PBMCs from healthy donor
Assay type: cell-based
Conditions: 10 μM final concentration, LPS 50 ng/ml, delta Buffer stimulated vs unstimulated = 100% inhibition; for inhibition at 10 µM: Homo sapiens, PBMC
Protocol: In the following study, ELISA-based TNFα release assay was performed to verify the inhibitory effects of Compounds 1, 2, 3, 4, 5, and 7 on LPS-induced release of endogenous TNFα from primary human material obtained from healthy donor using peripheral blood mononuclear cells (PBMCs). The ELISA-based TNFα release assay that was used in this example is described below.
In brief, on day 1, Nunc black MaxiSorp® 96-well plates (Thermo Fisher Scientific, USA) were coated overnight with 100 μl per well of mouse anti-human TNFα capture antibody (provided as part of the DuoSet ELISA kit) at 4 μg/ml TBS at 4° C. On day 2, the capture antibody solution was removed and MaxiSorp® plates were blocked with 300 μl per well of TBS, 1% BSA at room temperature for 3 hours. Meanwhile, 20,000 PBMCs from healthy donor (SciRhom GmbH, Germany) in 80 μl of normal growth medium were seeded in each well of Greiner CELLSTAR V-bottom 96-well plates (Thermo Fisher Scientific, USA) and pre-incubated with 20 μl per well of standard growth medium supplemented with Batimastat (BB94, Abcam, UK) at 50 μM as positive control (for a final concentration of 10 μM in the resulting 100 μl sample volume), compounds of the invention at 50 μM (for a final concentration of 10 μM in the resulting 100 μl sample volume) and in case of Buffer stimulated and unstimulated controls with DMSO (Carl Roth, Germany) at 50 μM (for a final concentration of 10 μM in the resulting 100 μl sample volume) at 37° C., 5% CO2 for 30 minutes. Subsequently, cells (except those for unstimulated controls) were stimulated with 20 μl per well of LPS (Sigma-Aldrich, USA) at 300 ng/ml growth medium for a final concentration of 50 ng/ml at 37° C., 5% CO2 for 2 hours. Afterwards, the 96-well plates were centrifuged to pellet cells. In parallel, blocking buffer was removed from the MaxiSorp® plates and plates were washed 4 times with 350 μl per well of TBS-T (Carl Roth, Germany) on a 96-head plate washer (Tecan Group, Switzerland). To avoid drying-up, 30 μl of TBS were added to each well of the MaxiSorp® plates immediately, followed by the transfer of 70 μl of cell-free supernatant per sample. Additionally, 100 μl of recombinant human TNFα protein (provided as part of the DuoSet ELISA kit) diluted in TBS at defined concentrations were added to the plate as standard references. Thereafter, 100 μl per well of biotinylated goat anti-human TNFα detection antibody (provided as part of the DuoSet ELISA kit) at 50 ng/ml TBS were added and, protected from direct light, plates were incubated at room temperature for 2 hours. After 4 times washing with 350 μl per well of TBS-T (Carl Roth, Germany) on a 96-head plate washer (Tecan Group, Switzerland) and careful removal of all buffer traces after the fourth cycle, 100 μl of streptavidin-AP (R&D Systems, USA) diluted 1:10,000 in TBS were added to each well and, again protected from direct light, plates were incubated at room temperature for 30 minutes. Following another round of 4 times washing with 350 μl per well of TBS-T (Carl Roth, Germany) on a 96-head plate washer (Tecan Group, Switzerland) and careful removal of all buffer traces after the fourth cycle, 100 μl of AttoPhos substrate solution (Promega, USA) was added for incubation in the dark at room temperature for 1 hour. Using an infinite M1000 PRO (Tecan Group, Switzerland) microplate reader, the fluorescence of each well was collected at an excitation wavelength of 435 nm and an emission wavelength of 555 nm.
The delta between Buffer stimulated and Buffer unstimulated was defined 100% inhibition.

Cc1c(C(=O)NCc2cccs2)sc(=O)n1Cc1ccccc1F [Compound 5]
inhibition at 10 µM (2 h): 51.3%

Cc1c(C(=O)NCc2cccs2)sc(=O)n1Cc1ccccc1 [Compound 4]
inhibition at 10 µM (2 h): 42%

CCOC(=O)c1ccc(Nc2nc3nonc3n3nnnc23)cc1 [Compound 2]
inhibition at 10 µM (2 h): 98.6%

Cc1c(C(=O)NCc2ccco2)sc(=O)n1Cc1ccccc1F [Compound 7]
inhibition at 10 µM (2 h): 72.5%

CCC(=O)NCCc1c(/C=C2/C(=O)NC(=O)N(c3ccc(C)cc3C)C2=O)[nH]c2ccccc12 [Compound 1]
inhibition at 10 µM (2 hours): 99.5%

O=C(c1c(Cl)cccc1Cl)N1CCC(Cc2ccc(F)cc2)CC1 [Compound 3]
inhibition at 10 µM (2 h): 76.3%

CNC(=O)[C@H](Cc1ccccc1)NC(=O)[C@H](CC(C)C)[C@H](CSc1cccs1)C(=O)NO [Batimastat, reference compound]
inhibition of LPS-induced release of TNFα from human PBMCs (2 hours): 114.9% | inhibition at 10 µM (2 h): 99.5%
